The record followed here is US20030088061A1, “Materials and methods to modulate ligand binding/enzymatic activity of alpha/beta proteins containing an allosteric regulatory site” (priority 2000, published 2003).

One may read the IC50 as the concentration at which inhibition is half-maximal.

What all share (format): cell-based
One assay addresses T1, αMβ2 (Homo sapiens, UniProt P05107+P11215).
T1 construct: expressed in transfected cells; host or cells: JY (human B lymphoblastoid) cells
Nature of the assay: JY/αMβ2 cell adhesion to iC3b. The note with it: PMA-treated JY cells. The protocol: (§1) To assess the selectivity of each compound, an IC50 value was determined for additional binding partner compounds JY/αVβ3 and vitronectin, JY/α4β1 and VCAM/Ig, JY/αdβ2 and VCAM, JY/[…] and ICAM-1, JY/αMβ2 and iC3b, and JY/α4β7 and MAdCAM-1.
(§2) For each IC50 assay, 50 μl of the ligand diluted in 50 mM bicarbonate buffer (pH 9.6) was dispensed per well of an Immulon-4 plate. A single plate was used to test two different ligands, each in triplicate, The coating concentration for the various ligands was as follows: VCAM-1/Ig at 2.0 μg/ml; ICAM-1/Ig at 5.0 μg/ml; vitronectin at 0.5 μg/ml; MAdCAM-1/Ig at 3.0 μg/ml, and iC3b at 5.0 μg/ml. The capture antibody, e.g. anti-CD18 monoclonal antibody TS1/22, was added at a concentration of 10 μg/ml in 50 μl/well. Ligand-coated plates were covered and stored overnight at 4° C. The following day, the contents of each well was decanted, and each plate was washed three times with 200 μl/well D-PBS. The plate was then blocked by the addition of 300 μl/well of 1% BSA/D-PBS solution. Each plate was again covered and incubated at room temperature for at least 1 hour.
(§3) Prior to transfer to the adhesion plate, the compounds were initially diluted by transferring 4.2 μl of the diluted compounds to a 96-well deepwell titer plate containing 0.7 ml/well of RPMI 1640, 0.1% BSA, and 3 ng/ml PMA (Sigma Corp., St. Louis, Mo.) pre-warmed to 37° C. The 1% BSA/D-PBS blocking solution was decanted from the 96-well Immulon-4 plates and replaced with 0.2 ml of diluted compound. […]
(§4) The adhesion assay was initiated by addition of 100 μl of the cell suspension to each well of the Immulon-4 plate. […] Adherent cells were quantitated by determining the absorbance at 570 nm in a plate spectrophotometer. The percentage of cell binding was determined by using the mean values for each triplicate in a given assay and the formula below. […]
(§5) The four compounds Cmpd K, Cmpd W, Cmpd Z, Cmpd D identified in the primary screen were selected for further specificity profiling, whereby their IC50 values were determined in additional integrin-dependent adhesive events. […]

The next assay has as its target T2, αLβ2 (Homo sapiens, UniProt P05107+P20701).
T2 construct: endogenous in cells; host or cells: JY cells
As to the kind of experiment: JY/αLβ2 cell adhesion to ICAM-1/Ig. The note with it: PMA-treated JY cells. The procedure: as §1, §2
Prior to transfer to the adhesion plate, the compounds were initially diluted by transferring 4.2 μl of the diluted compounds to a 96-well deepwell titer plate containing 0.7 ml/well of RPMI 1640, 0.1% BSA, and 3 ng/ml PMA (Sigma Corp., St. Louis, Mo.) pre-warmed to 37° C. The 1% BSA/D-PBS blocking solution was decanted from the 96-well Immulon-4 plates and replaced with 0.2 ml of diluted compound. For each 96-well plate to be screened, approximately 8×10^6 cells were collected by centrifugation and resuspended in adhesion media (RPMI 1640 containing 0.1% BSA) to a final concentration of 10^6/ml. To prevent PMA-dependent homotypic aggregation in the adhesion assay, the anti-CD18 antibody 22F12C (ICOS Corp., Bothell, Wash.) was added to the cell suspensions to a final concentration of 10 μg/ml, and the cells were incubated at 37° C. for 15 min. This antibody was not added to CD18-dependent adhesion assays involving JY/αLβ2, JY/αdβ2 or JY/αMβ2 and their corresponding ligands ICAM-1, VCAM-1, or iC3b.
as §4, §5

The next assay concerns the target T3, αVβ3 (Homo sapiens, UniProt P05106+P06756).
T3 construct: endogenous in cells; host or cells: JY cells
Nature of the assay: JY/αVβ3 cell adhesion to vitronectin. The note with it: PMA-treated JY cells; read-out: VN αVβ3 IC50. The procedure:
as §1, §2, §3, §4, §5

T3 sequence (P06756 31-889 limits assumed): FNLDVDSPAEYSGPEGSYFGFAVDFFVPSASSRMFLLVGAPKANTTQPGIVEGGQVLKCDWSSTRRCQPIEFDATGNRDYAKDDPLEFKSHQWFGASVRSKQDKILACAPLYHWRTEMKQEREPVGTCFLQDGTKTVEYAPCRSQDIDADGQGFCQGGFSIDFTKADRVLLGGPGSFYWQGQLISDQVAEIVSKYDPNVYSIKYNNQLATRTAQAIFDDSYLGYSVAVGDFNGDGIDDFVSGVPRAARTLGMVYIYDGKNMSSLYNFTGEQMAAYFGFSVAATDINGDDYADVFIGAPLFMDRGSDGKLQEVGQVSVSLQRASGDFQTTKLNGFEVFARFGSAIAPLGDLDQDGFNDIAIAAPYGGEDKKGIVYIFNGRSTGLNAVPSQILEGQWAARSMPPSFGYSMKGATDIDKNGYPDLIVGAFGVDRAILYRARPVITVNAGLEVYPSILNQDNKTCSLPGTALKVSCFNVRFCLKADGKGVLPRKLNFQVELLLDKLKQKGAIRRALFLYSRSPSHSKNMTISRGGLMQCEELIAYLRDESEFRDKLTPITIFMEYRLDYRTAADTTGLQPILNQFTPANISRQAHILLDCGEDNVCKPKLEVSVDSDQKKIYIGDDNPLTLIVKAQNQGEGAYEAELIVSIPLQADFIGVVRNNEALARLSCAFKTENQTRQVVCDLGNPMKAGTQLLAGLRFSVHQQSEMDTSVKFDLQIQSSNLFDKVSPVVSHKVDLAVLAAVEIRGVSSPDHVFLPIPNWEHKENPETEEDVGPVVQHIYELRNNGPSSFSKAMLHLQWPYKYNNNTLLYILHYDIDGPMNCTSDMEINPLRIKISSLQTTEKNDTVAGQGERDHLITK
T3 sequence (P06756 891-1048 partner limits assumed): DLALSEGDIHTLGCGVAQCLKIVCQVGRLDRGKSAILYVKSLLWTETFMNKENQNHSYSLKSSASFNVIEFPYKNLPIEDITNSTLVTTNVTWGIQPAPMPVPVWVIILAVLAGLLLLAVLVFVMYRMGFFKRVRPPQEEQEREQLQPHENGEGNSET
T3 sequence (P05106 27-788): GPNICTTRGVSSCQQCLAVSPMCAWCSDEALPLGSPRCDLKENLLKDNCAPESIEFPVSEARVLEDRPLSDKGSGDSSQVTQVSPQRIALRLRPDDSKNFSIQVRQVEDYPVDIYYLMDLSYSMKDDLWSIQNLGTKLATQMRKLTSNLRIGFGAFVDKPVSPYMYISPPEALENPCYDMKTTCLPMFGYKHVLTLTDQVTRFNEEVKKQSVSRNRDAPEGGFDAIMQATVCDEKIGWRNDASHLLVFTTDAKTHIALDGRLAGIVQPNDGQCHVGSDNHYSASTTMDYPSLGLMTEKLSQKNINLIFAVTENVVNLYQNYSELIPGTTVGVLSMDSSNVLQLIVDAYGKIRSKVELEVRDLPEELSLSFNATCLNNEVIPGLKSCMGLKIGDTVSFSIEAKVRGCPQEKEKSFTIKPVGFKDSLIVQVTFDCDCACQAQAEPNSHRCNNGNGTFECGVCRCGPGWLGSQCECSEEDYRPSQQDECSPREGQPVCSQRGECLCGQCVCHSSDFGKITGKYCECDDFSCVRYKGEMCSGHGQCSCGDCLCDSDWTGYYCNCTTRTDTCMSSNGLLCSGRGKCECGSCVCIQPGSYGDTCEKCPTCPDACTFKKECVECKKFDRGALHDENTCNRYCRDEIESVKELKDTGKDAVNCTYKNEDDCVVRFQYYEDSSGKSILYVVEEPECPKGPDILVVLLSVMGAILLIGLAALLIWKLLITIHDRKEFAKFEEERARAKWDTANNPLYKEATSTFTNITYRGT

On to `CC(=O)Oc1ccccc1C(=O)n1c(-c2ccccc2)cc2ccccc21` [Cmpd D], for which the IC50 came out at 7 µM against αMβ2, 28 µM at αLβ2 and 4 µM at αVβ3.

With `O=C(NCc1cccnc1)c1ccccc1C(=O)Nc1sc2ccccc2c1Cl` [Cmpd K], the IC50 at αMβ2 was found to be 4 µM; on αLβ2, 11 µM; on αVβ3, 6 µM.

For the molecule `Nc1ccc(Sc2ccc(NC(=O)CCc3ccccc3)cc2)c(Cl)c1` [Cmpd W], the IC50 amounted to 4 µM against αMβ2, 30 µM at αLβ2 and 8 µM at αVβ3.

Molecule `CC(CN(C)C)NCc1ccccc1Sc1ccc(C(C)(C)C)cc1` (stereo not shown) [Cmpd Z] gave an IC50 at αLβ2 of 20 µM.
